The values below are quoted from earlier work in paper PMC12503259, “Establishment of an in vivo analytical method for detecting total anti-UFH activity and pharmacokinetic study in PS and R15 in rats” (PLOS One, 2025).

The conditions of data set [1]: UFH 300 U·kg^-1 in rats, preliminary experimental data; cited from earlier work. The text has this: A dose of 300 U· kg^-1 dose of UFH is considered clinically effective. […] Accordingly, we performed pharmacokinetic studies of PS at 300 U kg^-1, and of R15 at 300, 900, and 2700 U· kg^-1 to determine whether R15 follows linear or nonlinear pharmacokinetics.
The conditions of data set [2]: clinical practice; cited from earlier work.
Source text: In clinical practice, PS is typically administered at 1.2 times the anti-heparin activity of circulating UFH to achieve complete neutralization [40, 41].

With Unfractionated heparin [UFH], the duration of heparinization result in data set [1] was “at least 4 hours”. Moreover, in data set [2], the T1/2 was 60 to 120 min.
